# Measured values published in PMC9779571, “Guanidine Derivatives Containing the Chalcone Skeleton Are Potent Antiproliferative Compounds against Human Leukemia Cells” (International Journal of Molecular Sciences, 2022).
# Values joined by “and” are separate entries in the source; they are usually repeats but may differ in a detail not shown here. Equal values may be shown once.
# Experiments:
# SK-MEL-1 cells = test: MTT cytotoxicity assay, SK-MEL-1; assay type: cell-based, human; conditions: Homo sapiens, SK-MEL-1, 72 h, means ± SEM
# Source text: (§1) U-937, HL-60, MOLT-3, NALM-6, and SK-MEL-1 cells were from DSMZ (German Collection of Microorganisms and Cell Cultures, Braunschweig, Germany). U-937/Bcl-2 cells were kindly provided by Dr. Jacqueline Bréard (INSERM U749, Faculté de Pharmacie Paris-Sud, Châtenay-Malabry, France). The U-937 is a pro-monocytic, human promyelocytic leukemia cell line that was isolated from a histiocytic lymphoma. HL-60 is a human acute myeloid leukemia cell line. MOLT-3 is a human acute lymphoblastic leukemia cell line. NALM-6 is a human B cell precursor leukemia. SK-MEL-1 is a human melanoma cell line growing singly or in clumps (occasional giant, polynucleated cell) in suspension. Cells were cultured in RPMI 1640 medium containing 10% (v/v) heat-inactivated fetal bovine serum, 100 μg/mL streptomycin, and 100 U/mL penicillin, incubated at 37 °C in a humidified atmosphere containing 5% CO2 as described. The doubling times of the cell lines were 24 h in HL-60, 30 h in U-937, U-937/Bcl-2, 40 h in MOLT-3 and NALM-6, and several days in SK-MEL-1 cells. Human peripheral blood mononuclear cells (PBMC) were isolated from heparin-anticoagulated blood of healthy volunteers by centrifugation with Ficoll-Paque Plus (GE Healthcare Bio-Sciences AB, Uppsala, Sweden). PBMC were also stimulated with phytohemagglutinin (2 µg/mL) for 48 h before the experimental treatment. The trypan blue exclusion method was used for counting the cells by a hemocytometer with 95% viability in all the experiments. Compounds were dissolved in dimethyl sulfoxide (DMSO) and kept under dark conditions at 25 °C. […] The cytotoxicity of the synthetic compounds was evaluated by colorimetric 3-(4,5-dimethyl-2-thiazolyl-)-2,5-diphenyl-2H-tetrazolium bromide (MTT) assay as previously described. Briefly, cells (5000 per well) were incubated with increasing concentrations of compounds for 72 h into a 96-well plate. Then, the supernatants were removed and 0.5 mg/mL MTT was added and incubated for 4 h at 37 °C. Sodium dodecyl sulfate (10% w/v) in 0.05 M HCl was added to solubilize the reaction products and the absorbance was measured at 570 nm with a reference wavelength of […] using an ELISA reader (Bio-Rad, Hercules, CA, USA). The IC50 values (concentrations inducing a 50% inhibition of cell viability) were determined graphically for each experiment by a nonlinear regression using the curve fitting routine implemented within the software Prism 5.0 (GraphPad, La Jolla, CA, USA).
# U-937/Bcl-2 cells = test: MTT cytotoxicity assay, U-937/Bcl-2; assay type: cell-based, human; conditions: Homo sapiens, U-937, 72 h, means ± SEM
# Source text: as §1
# MOLT-3 cells = test: MTT cytotoxicity assay, MOLT-3; assay type: cell-based, human; conditions: Homo sapiens, MOLT-3, 72 h, means ± SEM
# Source text: as §1
# U-937 cells = test: MTT cytotoxicity assay, U-937; assay type: cell-based; conditions: Homo sapiens, U-937, 72 h, means ± SEM
# Source text: as §1
# NALM-6 cells = test: MTT cytotoxicity assay, NALM-6; assay type: cell-based, human; conditions: for IC50: Homo sapiens, NALM-6, 72 h, 72 h, MTT, means ± SEM
# Source text: as §1
# HL-60 cells = test: MTT cytotoxicity assay, HL-60; assay type: cell-based; conditions: Homo sapiens, HL-60, 72 h, means ± SEM
# Source text: as §1
# U-937 leukemia cells = test: Cell cycle and sub-G1 analysis by flow cytometry (propidium iodide); assay type: cell-based, human; conditions: 24 h; for fold increase of sub-G1 cells over control / %G1 / %G2-M / %S / %Sub-G1: 10 µM; for fold increase of sub-G1 cells over control: U-937; for %G1 / %G2-M / %S / %Sub-G1: U-937, means ± S.E.; for cell cycle arrest: U-937, 10 µM
# Protocol: Cells (2.5 × 10^5) were centrifuged for 10 min at 500× g, washed with cold PBS, fixed with ice-cold 75% ethanol and stored at −20 °C overnight. Samples were then centrifuged at 500× g for 10 min at 4 °C, washed with PBS, resuspended in 200 μL of PBS containing 100 μg/mL RNase and 50 μg/mL propidium iodide and incubated for 1 h in the dark. The DNA content was analyzed by flow cytometry with a BD FACSVerse^TM cytometer (BD Biosciences, San Jose, CA, USA). Apoptosis was also evaluated by flow cytometric analysis of double-staining annexin V-FITC and propidium iodide cells as previously described.
# [1] = system: six human cancer cell lines; test: MTT cytotoxicity assay, all cell lines assayed (summary statements); assay type: cell-based; conditions: 72 h, MTT
# Source text: U-937, HL-60, MOLT-3, NALM-6, and SK-MEL-1 cells were from DSMZ (German Collection of Microorganisms and Cell Cultures, Braunschweig, Germany). U-937/Bcl-2 cells were kindly provided by Dr. Jacqueline Bréard (INSERM U749, Faculté de Pharmacie Paris-Sud, Châtenay-Malabry, France). The U-937 is a pro-monocytic, human promyelocytic leukemia cell line that was isolated from a histiocytic lymphoma. HL-60 is a human acute myeloid leukemia cell line. MOLT-3 is a human acute lymphoblastic leukemia cell line. NALM-6 is a human B cell precursor leukemia. SK-MEL-1 is a human melanoma cell line growing singly or in clumps (occasional giant, polynucleated cell) in suspension. Cells were cultured in RPMI 1640 medium containing 10% (v/v) heat-inactivated fetal bovine serum, 100 μg/mL streptomycin, and 100 U/mL penicillin, incubated at 37 °C in a humidified atmosphere containing 5% CO2 as described. […] The cytotoxicity of the synthetic compounds was evaluated by colorimetric 3-(4,5-dimethyl-2-thiazolyl-)-2,5-diphenyl-2H-tetrazolium bromide (MTT) assay as previously described. […] Sodium dodecyl sulfate (10% w/v) in 0.05 M HCl was added to solubilize the reaction products and the absorbance was measured at 570 nm with a reference wavelength of […] using an ELISA reader (Bio-Rad, Hercules, CA, USA). […]
SMILES,IC50 (SK-MEL-1 cells) [µM],IC50 (U-937/Bcl-2 cells) [µM],IC50 (MOLT-3 cells) [µM],IC50 (U-937 cells) [µM],IC50 (NALM-6 cells) [µM],IC50 (HL-60 cells) [µM],fold increase of sub-G1 cells over control (U-937 leukemia cells),%G1 (U-937 leukemia cells) [%],%G2-M (U-937 leukemia cells),%S (U-937 leukemia cells) [%],%Sub-G1 (U-937 leukemia cells),cell cycle arrest (U-937 leukemia cells),"increase in cytotoxicity on substitution of p-tosyl-sulfonyl group (6b) by phenyl group (NALM-6 cells; NALM-6, IC50 ratio 6b vs 6h)",cytotoxicity against the cancer cell lines assayed [1]
Cc1ccc(S(=O)(=O)NC(=Nc2ccc(/C=C/C(=O)c3c(O)cccc3OCc3ccccc3)cc2)N(C(C)C)C(C)C)cc1 [Compound 6b],> 30,11.7 ± 7,2 ± 0.7,18.5 ± 9.6,27 ± 0.8,20.5 ± 9.5,,,,,,,,
Cc1ccc(S(=O)(=O)NC(=Nc2ccc(/C=C/C(=O)c3c(O)cccc3OCc3ccccc3)cc2)N2CCCCC2)cc1 [Compound 6d],> 30,24.6 ± 5.4,3.3 ± 0.6,> 30,6.6 ± 1.2,28.5 ± 14.3,,,,,,,,
Cc1ccc(S(=O)(=O)NC(=Nc2ccc(/C=C/C(=O)c3c(O)cccc3OCc3ccccc3)cc2)N(C)c2ccccc2)cc1 [Compound 6c],> 30,4.2 ± 1.2,2.5 ± 0.2,9.5 ± 5.3,9.9 ± 3.1,4.2 ± 0.5,~ 10 fold,37.4 ± 0.3,11.4 ± 0.4%,27.0 ± 0.7,23.5% and 23.5 ± 1.2 %,not caused by a significant cell cycle arrest in any phase,,
[N-]=[N+]=Nc1ccc(/C=C/C(=O)c2c(O)cccc2OCc2ccccc2)cc1 [Compound 3],> 30,> 30,7.4 ± 0.4,> 30,11.6 ± 1.6,> 30,,,,,,,,
CC(C)N(/C(=N/c1ccc(/C=C/C(=O)c2c(O)cccc2OCc2ccccc2)cc1)Nc1ccccc1)C(C)C [Compound 6h],5.2 ± 1,14 ± 6.6,4.3 ± 0.5,10.6 ± 2.6,5.4 ± 0.2,5.2 ± 0.9,,53.7 ± 0.4,9.2 ± 0.5 %,29.5 ± 0.3,7.2 ± 1.1 %,not caused by a significant cell cycle arrest in any phase,five-fold,
"COc1cc([C@@H]2c3cc4c(cc3[C@@H](O[C@@H]3O[C@@H]5CO[C@@H](C)O[C@H]5[C@H](O)[C@H]3O)[C@H]3COC(=O)[C@H]23)OCO4)cc(OC)c1O [Etoposide, reference compound]",9 ± 3,,0.2 ± 0.1,1.8 ± 0.2,,0.6 ± 0.2,,,,,,,,
CN1CCN(C(=Nc2ccc(/C=C/C(=O)c3c(O)cccc3OCc3ccccc3)cc2)Nc2ccccc2)CC1 [Compound 6k],> 30,14 ± 5.1,21.7 ± 6.5,14 ± 1.1,24.8 ± 3.3,11.4 ± 5.5,,,,,,,,
CCCCCCCCCCCCCCCCCCNC(=Nc1ccc(/C=C/C(=O)c2c(O)cccc2OCc2ccccc2)cc1)NS(=O)(=O)c1ccc(C)cc1 [Compound 6g],> 30,> 30,> 30,> 30,> 30,> 30,,,,,,,,not cytotoxic
Cc1ccc(S(=O)(=O)NC(=Nc2ccc(/C=C/C(=O)c3c(O)cccc3OCc3ccccc3)cc2)NC(C)C)cc1 [Compound 6a],> 30,2.9 ± 0.2,2.9 ± 1.1,11.4 ± 6.5,2.9 ± 0.5,3.7 ± 1.6,,,,,,,,
O=C(/C=C/c1ccc(N=C(Nc2ccccc2)N2CCOCC2)cc1)c1c(O)cccc1OCc1ccccc1 [Compound 6j],5.4 ± 0.8,11.7 ± 3.4,1.8 ± 0.5,8.6 ± 1.1,4.1 ± 0.5,6.2 ± 1.7,,51.3 ± 1.1,11.5 ± 0.1%,32.0 ± 0.4,4.7 ± 0.6%,,,
"COc1cccc2c1C(=O)c1c(O)c3c(c(O)c1C2=O)C[C@@](O)(C(=O)CO)C[C@@H]3O[C@H]1C[C@H](N)[C@H](O)[C@H](C)O1 [Doxorubicin, reference compound]",0.3 ± 0.1,,,0.1,,,,,,,,,,
Cc1ccc(S(=O)(=O)NC(=Nc2ccc(/C=C/C(=O)c3c(O)cccc3OCc3ccccc3)cc2)N2CCOCC2)cc1 [Compound 6e],14.3 ± 5.7,2.3 ± 0.9,3.2 ± 1.5,5.4 ± 2.1,3.1 ± 0.5,3.8 ± 1.1,~ 5 fold,36.5 ± 2.3,27% and 27.3 ± 2.0 %,23.6 ± 0.5,11.9% and 11.9 ± 0.2 %,induced an arrest at the G2-M phase,,
